Experimental data taken from ChEMBL document CHEMBL1123607, “Synthesis of potential anticancer agents: imidazo[4,5-c]pyridines and imidazo[4,5-b]pyridines” (J Med Chem, 1987).

How the values were obtained:
L1210 [1] = assay: Mitotic index (MI); assay type: functional, Mus musculus
L1210 [2] = assay: Percent increase in life span at 40 mg/kg on a single dose schedule against L1210 leukemia; assay type: functional; conditions: Mus musculus
L1210 [3] = assay: Inhibition against the proliferation of L1210 leukemia; assay type: functional, cell-based; conditions: Mus musculus
[4] = Cytotoxicity activity against the KB cell culture at less than 10 uM; assay type: functional; conditions: Homo sapiens, read-out: ED50 (the source's name)

| SMILES | MI (L1210 [1]) [µM] | ILS at 40 mg/kg (L1210 [2]) [%] | IC50 (L1210 [3]) [µM] | EC50 [4] [µM] |
| --- | --- | --- | --- | --- |
| CCOC(=O)Nc1cc(NC(c2ccccc2)c2ccccc2)c2[nH]cnc2n1 | 1.15 | 59 | 0.37 | – |
| CCOC(=O)Nc1cc(Nc2ccccc2)c2[nH]cnc2n1 | – | – | – | 9.5 |
